Test results reported in PubChem BioAssay AID1918999 (Molecular Pharmacology Branch, DTP, NCI, 2023).
Blank lines part the entries; values can stand above or below the molecule they belong to.

System: 556581-035-R-J1-PDC complex spheroid growth
Assay: Anticancer human tumor 556581-035-R-J1-PDC patient-derived ovarian carcinoma cell line growth inhibition [AhR]
Details: for IC50: curve of first compound; for viability, T/C: stronger effect = lower value
Outline: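 Spheroids combined tumor cells with HUVEC endothelial cells and human MSCs as stroma. AhR antagonists were paired with standard or investigational drugs, each dosed in half-log steps down from near clinical Cmax, or from 10 microM where Cmax was unknown.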

[1] = second compound 0.1 µM, first compound 0.0316 µM
[2] = second compound 0.1 µM, first compound 0.1 µM
[3] = second compound 0.1 µM, first compound 0.316 µM
[4] = second compound 0.1 µM, first compound 1 µM
[5] = second compound 0.1 µM, first compound 3.16 µM
[6] = second compound 0.1 µM, first compound 10 µM
[7] = second compound 0.316 µM, first compound 0.0316 µM
[8] = second compound 0.316 µM, first compound 0.1 µM
[9] = second compound 0.316 µM, first compound 0.316 µM
[10] = second compound 0.316 µM, first compound 1 µM
[11] = second compound 0.316 µM, first compound 3.16 µM
[12] = second compound 0.316 µM, first compound 10 µM
[13] = second compound 1 µM, first compound 0.0316 µM
[14] = second compound 1 µM, first compound 0.1 µM
[15] = second compound 1 µM, first compound 0.316 µM
[16] = second compound 1 µM, first compound 1 µM
[17] = second compound 1 µM, first compound 3.16 µM
[18] = second compound 1 µM, first compound 10 µM
[19] = second compound 3.16 µM, first compound 0.0316 µM
[20] = second compound 3.16 µM, first compound 0.1 µM
[21] = second compound 3.16 µM, first compound 0.316 µM
[22] = second compound 3.16 µM, first compound 1 µM
[23] = second compound 3.16 µM, first compound 3.16 µM
[24] = second compound 3.16 µM, first compound 10 µM
[25] = second compound 10 µM, first compound 0.0316 µM
[26] = second compound 10 µM, first compound 0.1 µM
[27] = second compound 10 µM, first compound 0.316 µM
[28] = second compound 10 µM, first compound 1 µM
[29] = second compound 10 µM, first compound 3.16 µM
[30] = second compound 10 µM, first compound 10 µM
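For viability, T/C in this document: compound exposure lasted 7 days; 100% = DMSO vehicle control growth.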

- IC50 (second compound 0.1 µM): > 10 µM
- IC50 (second compound 0.316 µM): > 10 µM
- IC50 (second compound 1 µM): > 10 µM
- IC50 (second compound 3.16 µM): > 10 µM
- IC50 (second compound 10 µM): > 10 µM
Compound: CC1(C)CCC(CN2CCN(c3ccc(C(=O)NS(=O)(=O)c4ccc(NCC5CCOCC5)c([N+](=O)[O-])c4)c(Oc4cnc5[nH]ccc5c4)c3)CC2)=C(c2ccc(Cl)cc2)C1 + Cc1ccccc1N=Nc1ccc(NC(=O)c2ccnn2C)c(C)c1
- viability, T/C [1]: 97.1%
- viability, T/C [2]: 108%
- viability, T/C [3]: 106%
- viability, T/C [4]: 103%
- viability, T/C [5]: 106%
- viability, T/C [6]: 82.4%
- viability, T/C [7]: 99.3%
- viability, T/C [8]: 105%
- viability, T/C [9]: 113%
- viability, T/C [10]: 99.6%
- viability, T/C [11]: 108%
- viability, T/C [12]: 85.9%
- viability, T/C [13]: 102%
- viability, T/C [14]: 101%
- viability, T/C [15]: 109%
- viability, T/C [16]: 98.3%
- viability, T/C [17]: 97.5%
- viability, T/C [18]: 78.1%
- viability, T/C [19]: 96.7%
- viability, T/C [20]: 97.1%
- viability, T/C [21]: 97.7%
- viability, T/C [22]: 97.9%
- viability, T/C [23]: 103%
- viability, T/C [24]: 90.3%
- viability, T/C [25]: 101%
- viability, T/C [26]: 97.5%
- viability, T/C [27]: 97.6%
- viability, T/C [28]: 95.6%
- viability, T/C [29]: 86.7%
- viability, T/C [30]: 77.2%

- IC50 (second compound 0.1 µM): > 3 µM
- IC50 (second compound 0.316 µM): > 3 µM
- IC50 (second compound 1 µM): > 3 µM
- IC50 (second compound 3.16 µM): > 3 µM
- IC50 (second compound 10 µM): > 3 µM
Compound: CCN(c1cc(-c2ccc(CN3CCOCC3)cc2)cc(C(=O)NCc2c(C)cc(C)[nH]c2=O)c1C)C1CCOCC1 + Cc1ccccc1N=Nc1ccc(NC(=O)c2ccnn2C)c(C)c1
- viability, T/C (second compound 0.1 µM, first compound 0.00949 µM): 92%
- viability, T/C (second compound 0.1 µM, first compound 0.03 µM): 97%
- viability, T/C (second compound 0.1 µM, first compound 0.0949 µM): 85.8%
- viability, T/C (second compound 0.1 µM, first compound 0.3 µM): 91.5%
- viability, T/C (second compound 0.1 µM, first compound 0.949 µM): 90.9%
- viability, T/C (second compound 0.1 µM, first compound 3 µM): 86.8%
- viability, T/C (second compound 0.316 µM, first compound 0.00949 µM): 95.2%
- viability, T/C (second compound 0.316 µM, first compound 0.03 µM): 98.2%
- viability, T/C (second compound 0.316 µM, first compound 0.0949 µM): 88.9%
- viability, T/C (second compound 0.316 µM, first compound 0.3 µM): 85.4%
- viability, T/C (second compound 0.316 µM, first compound 0.949 µM): 86.2%
- viability, T/C (second compound 0.316 µM, first compound 3 µM): 81.1%
- viability, T/C (second compound 1 µM, first compound 0.00949 µM): 81.4%
- viability, T/C (second compound 1 µM, first compound 0.03 µM): 85.6%
- viability, T/C (second compound 1 µM, first compound 0.0949 µM): 88.4%
- viability, T/C (second compound 1 µM, first compound 0.3 µM): 82.6%
- viability, T/C (second compound 1 µM, first compound 0.949 µM): 82.4%
- viability, T/C (second compound 1 µM, first compound 3 µM): 89.1%
- viability, T/C (second compound 3.16 µM, first compound 0.00949 µM): 84.5%
- viability, T/C (second compound 3.16 µM, first compound 0.03 µM): 88.1%
- viability, T/C (second compound 3.16 µM, first compound 0.0949 µM): 87.6%
- viability, T/C (second compound 3.16 µM, first compound 0.3 µM): 73.9%
- viability, T/C (second compound 3.16 µM, first compound 0.949 µM): 91.8%
- viability, T/C (second compound 3.16 µM, first compound 3 µM): 78%
- viability, T/C (second compound 10 µM, first compound 0.00949 µM): 74.9%
- viability, T/C (second compound 10 µM, first compound 0.03 µM): 90.3%
- viability, T/C (second compound 10 µM, first compound 0.0949 µM): 83.8%
- viability, T/C (second compound 10 µM, first compound 0.3 µM): 79%
- viability, T/C (second compound 10 µM, first compound 0.949 µM): 77%
- viability, T/C (second compound 10 µM, first compound 3 µM): 73.4%

Further lines, the molecule ahead of its results:

Compound: COc1cc(Nc2ncc3c(n2)-c2ccc(Cl)cc2C(c2c(F)cccc2OC)=NC3)ccc1C(=O)O + Cc1ccccc1N=Nc1ccc(NC(=O)c2ccnn2C)c(C)c1
- IC50 (second compound 0.1 µM): > 10 µM
- IC50 (second compound 0.316 µM): > 10 µM
- IC50 (second compound 1 µM): > 10 µM
- IC50 (second compound 3.16 µM): > 10 µM
- IC50 (second compound 10 µM): > 10 µM
- viability, T/C [1]: 83.8%
- viability, T/C [2]: 72.4%
- viability, T/C [3]: 69.2%
- viability, T/C [4]: 61.4%
- viability, T/C [5]: 60.4%
- viability, T/C [6]: 59.4%
- viability, T/C [7]: 78%
- viability, T/C [8]: 73.5%
- viability, T/C [9]: 68.5%
- viability, T/C [10]: 56.6%
- viability, T/C [11]: 61.1%
- viability, T/C [12]: 48.7%
- viability, T/C [13]: 80.5%
- viability, T/C [14]: 73.2%
- viability, T/C [15]: 69%
- viability, T/C [16]: 62.8%
- viability, T/C [17]: 64.7%
- viability, T/C [18]: 54.9%
- viability, T/C [19]: 67.2%
- viability, T/C [20]: 66.2%
- viability, T/C [21]: 57.6%
- viability, T/C [22]: 58.1%
- viability, T/C [23]: 58.6%
- viability, T/C [24]: 49.2%
- viability, T/C [25]: 70.2%
- viability, T/C [26]: 61.9%
- viability, T/C [27]: 62.1%
- viability, T/C [28]: 66%
- viability, T/C [29]: 57.6%
- viability, T/C [30]: 56.8%

Compound: Cn1ncnc1C1c2n[nH]c(=O)c3cc(F)cc(c23)NC1c1ccc(F)cc1 (stereo not given) + Cc1ccccc1N=Nc1ccc(NC(=O)c2ccnn2C)c(C)c1
- IC50 (second compound 0.1 µM): > 0.1 µM
- IC50 (second compound 0.316 µM): > 0.1 µM
- IC50 (second compound 1 µM): > 0.1 µM
- IC50 (second compound 3.16 µM): > 0.1 µM
- IC50 (second compound 10 µM): > 0.1 µM
- viability, T/C (second compound 0.1 µM, first compound 0.000316 µM): 102%
- viability, T/C (second compound 0.1 µM, first compound 0.001 µM): 112%
- viability, T/C (second compound 0.1 µM, first compound 0.00316 µM): 103%
- viability, T/C (second compound 0.1 µM, first compound 0.01 µM): 105%
- viability, T/C [1]: 94.9%
- viability, T/C [2]: 97.4%
- viability, T/C (second compound 0.316 µM, first compound 0.000316 µM): 112%
- viability, T/C (second compound 0.316 µM, first compound 0.001 µM): 114%
- viability, T/C (second compound 0.316 µM, first compound 0.00316 µM): 113%
- viability, T/C (second compound 0.316 µM, first compound 0.01 µM): 103%
- viability, T/C [7]: 104%
- viability, T/C [8]: 94.3%
- viability, T/C (second compound 1 µM, first compound 0.000316 µM): 116%
- viability, T/C (second compound 1 µM, first compound 0.001 µM): 99.6%
- viability, T/C (second compound 1 µM, first compound 0.00316 µM): 109%
- viability, T/C (second compound 1 µM, first compound 0.01 µM): 100%
- viability, T/C [13]: 97.8%
- viability, T/C [14]: 105%
- viability, T/C (second compound 3.16 µM, first compound 0.000316 µM): 110%
- viability, T/C (second compound 3.16 µM, first compound 0.001 µM): 101%
- viability, T/C (second compound 3.16 µM, first compound 0.00316 µM): 94.6%
- viability, T/C (second compound 3.16 µM, first compound 0.01 µM): 96.5%
- viability, T/C [19]: 104%
- viability, T/C [20]: 111%
- viability, T/C (second compound 10 µM, first compound 0.000316 µM): 92.2%
- viability, T/C (second compound 10 µM, first compound 0.001 µM): 108%
- viability, T/C (second compound 10 µM, first compound 0.00316 µM): 89.8%
- viability, T/C (second compound 10 µM, first compound 0.01 µM): 98.8%
- viability, T/C [25]: 93.8%
- viability, T/C [26]: 92.3%

Compound: NS(=O)(=O)OCC1CC(n2ccc3c(NC4CCc5ccccc54)ncnc32)CC1O (stereo not given) + Cc1ccccc1N=Nc1ccc(NC(=O)c2ccnn2C)c(C)c1
- IC50 (second compound 0.1 µM): > 10 µM
- IC50 (second compound 0.316 µM): > 10 µM
- IC50 (second compound 1 µM): > 10 µM
- IC50 (second compound 3.16 µM): > 10 µM
- IC50 (second compound 10 µM): > 10 µM
- viability, T/C [1]: 101%
- viability, T/C [2]: 103%
- viability, T/C [3]: 103%
- viability, T/C [4]: 108%
- viability, T/C [5]: 106%
- viability, T/C [6]: 82.2%
- viability, T/C [7]: 105%
- viability, T/C [8]: 104%
- viability, T/C [9]: 97.2%
- viability, T/C [10]: 103%
- viability, T/C [11]: 93.9%
- viability, T/C [12]: 80.2%
- viability, T/C [13]: 92.9%
- viability, T/C [14]: 102%
- viability, T/C [15]: 101%
- viability, T/C [16]: 101%
- viability, T/C [17]: 95.7%
- viability, T/C [18]: 79.7%
- viability, T/C [19]: 97.1%
- viability, T/C [20]: 96.5%
- viability, T/C [21]: 89.3%
- viability, T/C [22]: 89.7%
- viability, T/C [23]: 88.8%
- viability, T/C [24]: 73.3%
- viability, T/C [25]: 91.3%
- viability, T/C [26]: 80%
- viability, T/C [27]: 89.8%
- viability, T/C [28]: 88.2%
- viability, T/C [29]: 83.6%
- viability, T/C [30]: 69.6%
